The source of these data is paper PMC6934184, “Selective DNA-PKcs inhibition extends the therapeutic index of localized radiotherapy and chemotherapy” (The Journal of Clinical Investigation, 2019).

The target in the assay is T1, NTRK3 (TRKC) (Homo sapiens, UniProt Q16288).
T1 construct: purchased Thermo Fisher Scientific (Life Technologies) SelectScreen
Kind of assay: SelectScreen Z'LYTE. The assay is classed as biochemical. A digest of the protocol: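 Percent values come from Thermo SelectScreen profiling of NU5455, combining activity and binding assays. CSF1R was run in Z'LYTE format at Km app ATP, and CAMK1 in Adapta format with ATP listed at 10.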

T1 sequence (Q16288 32-839): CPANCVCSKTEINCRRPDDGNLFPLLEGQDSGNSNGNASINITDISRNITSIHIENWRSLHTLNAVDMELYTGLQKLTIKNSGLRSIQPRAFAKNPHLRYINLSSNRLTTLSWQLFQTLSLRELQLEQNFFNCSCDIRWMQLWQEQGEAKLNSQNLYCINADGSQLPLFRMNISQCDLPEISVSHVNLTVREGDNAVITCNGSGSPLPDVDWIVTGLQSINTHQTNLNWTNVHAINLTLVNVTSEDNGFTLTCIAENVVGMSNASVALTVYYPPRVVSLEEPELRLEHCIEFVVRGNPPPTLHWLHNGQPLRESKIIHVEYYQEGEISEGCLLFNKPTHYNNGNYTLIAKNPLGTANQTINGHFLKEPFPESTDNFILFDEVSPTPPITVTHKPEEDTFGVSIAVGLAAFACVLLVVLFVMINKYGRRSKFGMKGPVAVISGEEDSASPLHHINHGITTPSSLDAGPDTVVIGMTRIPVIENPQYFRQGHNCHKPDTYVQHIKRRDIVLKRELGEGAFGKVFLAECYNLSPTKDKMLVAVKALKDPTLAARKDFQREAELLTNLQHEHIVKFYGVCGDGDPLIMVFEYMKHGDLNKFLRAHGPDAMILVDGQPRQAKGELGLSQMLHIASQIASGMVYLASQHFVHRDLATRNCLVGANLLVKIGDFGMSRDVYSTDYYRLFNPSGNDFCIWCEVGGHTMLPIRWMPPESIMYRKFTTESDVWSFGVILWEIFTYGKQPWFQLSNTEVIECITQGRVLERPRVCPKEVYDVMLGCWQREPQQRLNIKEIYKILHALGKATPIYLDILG

For orientation: inhibition means the drop in the measured response relative to a control, in per cent. `CN(C(=O)CN1CCOCC1)c1ccc2sc3c(-c4cccc5c(=O)cc(N6CC7CCC(C6)O7)oc45)cccc3c2c1` [NU5455] showed an inhibition at 1 µM of 0.4%.
